According to ChEMBL document CHEMBL1201862, “PubChem BioAssay data set” (2004):
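Exposure lasted 48 hours, with cells grown in 96-well plates and compounds tested at five concentrations. Here, GI50 denotes the concentration required for 50% inhibition of growth.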 The source made the active and inactive calls. No stated cut-off is given here; in the data, active = GI50 up to about 1.1 µM and inactive = higher.

How the values were obtained:
Experiment in all cases: NCI anticancer screen, dose series, 48 h
SR = tested on: SR
SK-MEL-28 = tested on: SK-MEL-28
OVCAR-8 = tested on: OVCAR-8
TK-10 = tested on: TK-10
SW-620 = tested on: SW-620
COLO 205 = tested on: COLO 205
SNB-75 = tested on: SNB-75
CAKI-1 = tested on: CAKI-1
HCT-116 = tested on: HCT-116
SF-295 = tested on: SF-295
HT-29 = tested on: HT-29
CCRF-CEM = tested on: CCRF-CEM
HOP-62 = tested on: HOP-62
IGROV-1 = tested on: IGROV-1
NCI-H522 = tested on: NCI-H522
EKVX = tested on: EKVX
SF-539 = tested on: SF-539
LOX IMVI = tested on: LOX IMVI

Row | SMILES | GI50 (SR) | GI50 (SK-MEL-28) | GI50 (OVCAR-8) | GI50 (TK-10) | GI50 (SW-620) | GI50 (COLO 205) | GI50 (SNB-75) | GI50 (CAKI-1) | GI50 (HCT-116) | GI50 (SF-295) | GI50 (HT-29) | GI50 (CCRF-CEM) | GI50 (HOP-62) | GI50 (IGROV-1) | GI50 (NCI-H522) | GI50 (EKVX) | GI50 (SF-539) | GI50 (LOX IMVI)
1 | O=C1C2C=CC(C2)C(c2ccc(O)cc2)N1O (stereo unspecified) | > 100 µM (inactive) | > 100 µM (inactive) | > 100 µM (inactive) | > 100 µM (inactive) | > 100 µM (inactive) | > 100 µM (inactive) | > 100 µM (inactive) | > 100 µM (inactive) | > 100 µM (inactive) | > 100 µM (inactive) | > 100 µM (inactive) | > 100 µM (inactive) | > 100 µM (inactive) | > 100 µM (inactive) | > 100 µM (inactive) | > 100 µM (inactive) | – | –
2 | C=CC1(C)CC(=O)C2(O)C(C)(O1)C(OC(C)=O)C(O)C1C(C)(C)CCC(O)C12C (stereo unspecified) | – | > 150 µM (inactive) | > 76.4 µM (inactive) | 1.45 µM (inactive) | > 150 µM (inactive) | 104 µM (inactive) | 52 µM (inactive) | 1.37 µM (inactive) | 128 µM (inactive) | > 142 µM (inactive) | 49.8 µM (inactive) | 22.2 µM (inactive) | 59.7 µM (inactive) | 47.3 µM (inactive) | 132 µM (inactive) | > 150 µM (inactive) | 33.1 µM (inactive) | 60.8 µM (inactive)
3 | C=CCNC1=NC(=O)C(CC(=O)Nc2ccc([N+](=O)[O-])cc2[N+](=O)[O-])S1 (stereo unspecified) | – | > 100 µM (inactive) | > 100 µM (inactive) | 98.6 µM (inactive) | > 100 µM (inactive) | > 100 µM (inactive) | 66.5 µM (inactive) | 83.8 µM (inactive) | > 100 µM (inactive) | > 100 µM (inactive) | > 100 µM (inactive) | > 100 µM (inactive) | > 100 µM (inactive) | > 100 µM (inactive) | > 100 µM (inactive) | > 100 µM (inactive) | > 100 µM (inactive) | –
4 | O=C(/C=C1\Nc2ccccc2C(=O)N1c1ccc(Cl)cc1)c1ccncc1 | > 100 µM (inactive) | > 100 µM (inactive) | > 100 µM (inactive) | > 100 µM (inactive) | > 100 µM (inactive) | > 100 µM (inactive) | 20.7 µM (inactive) | > 100 µM (inactive) | > 100 µM (inactive) | 65 µM (inactive) | > 100 µM (inactive) | > 100 µM (inactive) | > 100 µM (inactive) | – | > 100 µM (inactive) | > 100 µM (inactive) | – | –
5 | Cn1cnc([N+](=O)[O-])c1Sc1nc2ccccc2s1 | 3.48 µM (inactive) | 9.1 µM (inactive) | 4.07 µM (inactive) | – | 4 µM (inactive) | 3.33 µM (inactive) | 15.6 µM (inactive) | 1.57 µM (inactive) | 5.47 µM (inactive) | 20.8 µM (inactive) | 13.3 µM (inactive) | – | 25.2 µM (inactive) | 11.9 µM (inactive) | – | 3.96 µM (inactive) | 12.5 µM (inactive) | 15.3 µM (inactive)
6 | CNC(=S)NNC(=O)c1c(C)nc2sccn12 | > 100 µM (inactive) | > 100 µM (inactive) | > 100 µM (inactive) | > 100 µM (inactive) | > 100 µM (inactive) | > 100 µM (inactive) | – | > 100 µM (inactive) | > 100 µM (inactive) | > 100 µM (inactive) | > 100 µM (inactive) | > 100 µM (inactive) | > 100 µM (inactive) | > 100 µM (inactive) | > 100 µM (inactive) | > 100 µM (inactive) | > 100 µM (inactive) | > 100 µM (inactive)
7 | O=C(c1ccccc1)C1CCCCN1C(=O)c1ccccc1 (stereo unspecified) | > 100 µM (inactive) | > 100 µM (inactive) | > 100 µM (inactive) | > 100 µM (inactive) | > 100 µM (inactive) | > 100 µM (inactive) | > 100 µM (inactive) | > 100 µM (inactive) | > 100 µM (inactive) | – | – | > 100 µM (inactive) | > 100 µM (inactive) | > 100 µM (inactive) | > 100 µM (inactive) | – | > 100 µM (inactive) | –
8 | COC(=O)[C@@]12C3=NO[C@]1(C(=O)OC)C(O[Si](C)(C)C(C)(C)C)[C@H]1OC(C)(C)O[C@H]1[C@@H]2C(OCc1ccccc1)CC3 (stereo partly specified) | – | > 100 µM (inactive) | 92.5 µM (inactive) | 84.1 µM (inactive) | > 100 µM (inactive) | 57.1 µM (inactive) | 17.9 µM (inactive) | – | 41.8 µM (inactive) | 37.3 µM (inactive) | 67.3 µM (inactive) | > 100 µM (inactive) | – | 42.7 µM (inactive) | – | 89.1 µM (inactive) | 59.2 µM (inactive) | 69 µM (inactive)
9 | CCC(=O)OC[n+]1ccc2c(C)c3[nH]c4ccccc4c3c(C)c2c1 | 0.0423 µM (active) | 1.38 µM (inactive) | 0.454 µM (active) | 1.36 µM (inactive) | 0.173 µM (active) | 0.323 µM (active) | 1.29 µM (inactive) | 1.11 µM (active) | 0.115 µM (active) | 0.532 µM (active) | 0.328 µM (active) | 0.444 µM (active) | – | 0.142 µM (active) | – | – | 0.478 µM (active) | 0.337 µM (active)
10 | O=C(OCC1CO1)c1cccs1 (stereo unspecified) | – | > 100 µM (inactive) | > 100 µM (inactive) | > 100 µM (inactive) | > 100 µM (inactive) | > 100 µM (inactive) | 37 µM (inactive) | > 100 µM (inactive) | – | > 100 µM (inactive) | > 100 µM (inactive) | > 100 µM (inactive) | > 100 µM (inactive) | > 100 µM (inactive) | 17 µM (inactive) | > 100 µM (inactive) | – | > 100 µM (inactive)
11 | O=C1c2ccccc2N2OC3C4CCC(C4)C3C12c1ccccc1 (stereo unspecified) | 44.1 µM (inactive) | 87.3 µM (inactive) | > 100 µM (inactive) | – | > 100 µM (inactive) | > 100 µM (inactive) | > 100 µM (inactive) | – | 45.5 µM (inactive) | > 100 µM (inactive) | 61.4 µM (inactive) | 44.2 µM (inactive) | > 100 µM (inactive) | > 100 µM (inactive) | 36 µM (inactive) | > 100 µM (inactive) | > 100 µM (inactive) | –
12 | CC[C@@]12N=C(N(C)C)C[C@]1(O)ON=C2C | > 100 µM (inactive) | > 100 µM (inactive) | > 100 µM (inactive) | > 100 µM (inactive) | > 100 µM (inactive) | > 100 µM (inactive) | > 100 µM (inactive) | > 100 µM (inactive) | > 100 µM (inactive) | > 100 µM (inactive) | > 100 µM (inactive) | > 100 µM (inactive) | – | > 100 µM (inactive) | > 100 µM (inactive) | > 100 µM (inactive) | > 100 µM (inactive) | –
13 | O=C(/C=C/c1ccccc1Cl)c1ccccc1Cl | – | 19.1 µM (inactive) | 17.3 µM (inactive) | 37.5 µM (inactive) | 12.6 µM (inactive) | 21.4 µM (inactive) | 30.3 µM (inactive) | 17.6 µM (inactive) | 14.6 µM (inactive) | 22.6 µM (inactive) | 18.8 µM (inactive) | 20.4 µM (inactive) | 47.8 µM (inactive) | 17.3 µM (inactive) | 19 µM (inactive) | 22.4 µM (inactive) | 17.6 µM (inactive) | –
